Assay results as given in patent US20190367516A1 (Bayer Pharma Aktiengesellschaft, priority 2015, published 2019).
Like-named read-outs stand apart in the source and are kept apart here.

What was measured:
human M2 receptor [1] = target: T1, human M2 receptor (Homo sapiens, UniProt P08172); assay type: cell-based; settings: shift in the acetylcholine dose-response curve (Allosteric EC50 shift, GraphPad PRISM); α >1 = positive cooperativity
T1 sequence (P08172 1-466): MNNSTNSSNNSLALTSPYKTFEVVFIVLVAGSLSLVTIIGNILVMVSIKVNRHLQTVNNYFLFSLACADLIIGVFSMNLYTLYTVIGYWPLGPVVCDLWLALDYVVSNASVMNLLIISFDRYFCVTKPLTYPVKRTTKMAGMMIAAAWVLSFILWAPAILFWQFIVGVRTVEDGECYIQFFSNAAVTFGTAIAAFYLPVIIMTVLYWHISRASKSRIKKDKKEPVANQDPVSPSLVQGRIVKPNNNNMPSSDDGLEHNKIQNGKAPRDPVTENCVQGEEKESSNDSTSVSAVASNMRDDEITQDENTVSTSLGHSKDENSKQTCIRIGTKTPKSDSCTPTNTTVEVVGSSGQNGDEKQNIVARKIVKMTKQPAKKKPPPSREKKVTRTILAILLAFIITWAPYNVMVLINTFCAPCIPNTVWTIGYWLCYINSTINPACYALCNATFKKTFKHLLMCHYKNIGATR

human M2 receptor [2] = target: T1, human M2 receptor; settings: for EC50: acetylcholine at EC20, allosteric potency, in some cases mean values from two or more determinations; for Emax: read-out: Efficiency
[3] = Receptor activity EC50, M2-GIRK1/4 activation test

| Cooperativity (alpha factor) (human M2 receptor [1]) | EC50 (human M2 receptor [2]; [3]) | EC50 (human M2 receptor [2]; read-out: Receptor activity EC50, M2-GIRK1/4 activation test) | SMILES | Emax (human M2 receptor [2]) |
| --- | --- | --- | --- | --- |
| 13 | 75 nM |  | CC[C@@H](NC(=O)c1cn(-c2ccc(F)cc2F)c2nc(N3CC(O)C3)ccc2c1=O)C(F)(F)F [Example 261, 1-(2,4-Difluorophenyl)-7-(3-hydroxyazetidin-1-yl)-4-oxo-N-[(2R)-1,1,1-trifluorobutan-2-yl]-1,4-dihydro-1,8-naphthyridine-3-carboxamide] |  |
| 27 | 72 nM |  | CC[C@@H](NC(=O)c1cn(-c2ccc(F)cc2F)c2nc(N3CC(O)(C(F)(F)F)C3)ccc2c1=O)C(F)(F)F [Example 262, 1-(2,4-Difluorophenyl)-7-[3-hydroxy-3-(trifluoromethyl)azetidin-1-yl]-4-oxo-N-[(2R)-1,1,1-trifluorobutan-2-yl]-1,4-dihydro-1,8-naphthyridine-3-carboxamide] |  |
| 32 |  | 21 nM | CC[C@@H](NC(=O)c1cn(-c2c(F)cc(F)cc2F)c2nc(N3CCC(O)C3=O)ccc2c1=O)C(F)(F)F (stereo partly drawn) [Example 282, 7-[3-Hydroxy-2-oxopyrrolidin-1-yl-4-oxo-N-[(2R)-1,1,1-trifluorobutan-2-yl]-4-oxo-N-trifluorobutan-2-yl]-1-(2,4,6-trifluorophenyl)-1,4-dihydro-1,8-naphthyridine-3-carboxamide] |  |
| 7 | 33 nM |  | CC[C@H](NC(=O)c1cn(-c2c(F)cc(F)cc2F)c2nc(N3C[C@@](C)(O)C[C@H]3C)ccc2c1=O)C(F)(F)F [Example 331, 7-[(2R,4S)-4-Hydroxy-2,4-dimethylpyrrolidin-1-yl]-4-oxo-N-[(2S)-1,1,1-trifluorobutan-2-yl]-1-(2,4,6-trifluorophenyl)-1,4-dihydro-1,8-naphthyridine-3-carboxamide] |  |
| 13 | 12 nM |  | CC[C@H](NC(=O)c1cn(-c2c(F)cc(F)cc2Cl)c2nc(N3CCC(C)(C)C3=O)ccc2c1=O)C(F)(F)F [Example 336, 1-(2-Chloro-4,6-difluorophenyl)-7-(3,3-dimethyl-2-oxopyrrolidin-1-yl)-4-oxo-N-[(2S)-1,1,1-trifluorobutan-2-yl]-1,4-dihydro-1,8-naphthyridine-3-carboxamide] |  |
| 26 | 44 nM |  | C[C@@H](COC(F)(F)F)NC(=O)c1cn(-c2c(F)cc(F)cc2F)c2nc(N3C[C@@H](O)CC3=O)ccc2c1=O [Example 339, 7-[(4S)-4-Hydroxy-2-oxopyrrolidin-1-yl]-4-oxo-N-[(2S)-1-(trifluoromethoxy)propan-2-yl]-1-(2,4,6-trifluorophenyl)-1,4-dihydro-1,8-naphthyridine-3-carboxamide] |  |
| 22 | 10 nM |  | CC[C@H](NC(=O)c1cn(-c2c(F)cc(F)cc2Cl)c2nc(N3CCNC3=O)ccc2c1=O)C(F)(F)F [Example 340, 1-(2-Chloro-4,6-difluorophenyl)-4-oxo-7-(2-oxoimidazolidin-1-yl)-N-[(2S)-1,1,1-trifluorobutan-2-yl]-1,4-dihydro-1,8-naphthyridine-3-carboxamide] |  |
| 63 | 4 nM |  | CC(C)(C)[C@@H](NC(=O)c1cn(-c2c(F)cc(F)cc2F)c2nc(N3C[C@@H](O)CC3=O)ccc2c1=O)C(F)(F)F [Example 357, 7-[(4S)-4-Hydroxy-2-oxopyrrolidin-1-yl]-4-oxo-N-[(2R)-1,1,1-trifluoro-3,3-dimethylbutan-2-yl]-1-(2,4,6-trifluorophenyl)-1,4-dihydro-1,8-naphthyridine-3-carboxamide] |  |

The remaining lines, values behind:

| SMILES | Cooperativity (alpha factor) (human M2 receptor [1]) | EC50 (human M2 receptor [2]; [3]) | EC50 (human M2 receptor [2]; read-out: Receptor activity EC50, M2-GIRK1/4 activation test) | Emax (human M2 receptor [2]) |
| --- | --- | --- | --- | --- |
| CCC(COC(F)(F)F)NC(=O)c1cn(-c2ccc(F)cc2F)c2nc(N3C[C@@H](O)CC3=O)ccc2c1=O (stereo partly drawn) [Example 234, 1-(2,4-Difluorophenyl)-7-[(4S)-4-hydroxy-2-oxopyrrolidin-1-yl]-4-oxo-N-[1-(trifluoromethoxy)butan-2-yl]-1,4-dihydro-1,8-naphthyridine-3-carboxamide] | 28 | 75 nM |  |  |
| CC[C@@H](NC(=O)c1cn(-c2ccccc2F)c2nc(N3C[C@@H](O)CC3=O)ccc2c1=O)C(F)(F)F [Example 239, 1-(2-Fluorophenyl)-7-[(4S)-4-hydroxy-2-oxopyrrolidin-1-yl]-4-oxo-N-[(2R)-1,1,1-trifluorobutan-2-yl]-1,4-dihydro-1,8-naphthyridine-3-carboxamide] | 30 | 112 nM |  | 99.3% |
| CC[C@H](NC(=O)c1cn(-c2ccc(F)cc2F)c2nc(N3C[C@@H](C(=O)OC)OC3=O)ccc2c1=O)C(F)(F)F [Example 258, Methyl (5S)-3-[8-(2,4-difluorophenyl)-5-oxo-6-{[(2S)-1,1,1-trifluorobutan-2-yl]carbamoyl}-5,8-dihydro-1,8-naphthyridin-2-yl]-2-oxo-1,3-oxazolidine-5-carboxylate] | 30 | 147 nM |  |  |
| CC[C@H](NC(=O)c1cn(-c2ccc(F)cc2F)c2nc(N3C[C@H](C(=O)OC)OC3=O)ccc2c1=O)C(F)(F)F [Example 259, Methyl (5R)-3-[8-(2,4-difluorophenyl)-5-oxo-6-{[(2S)-1,1,1-trifluorobutan-2-yl]carbamoyl}-5,8-dihydro-1,8-naphthyridin-2-yl]-2-oxo-1,3-oxazolidine-5-carboxylate] | 14 | 560 nM |  |  |
| CC[C@H](NC(=O)c1cn(-c2ccc(F)cc2F)c2nc(N3C[C@H](O)CC3=O)ccc2c1=O)C(F)(F)F [Example 285, 1-(2,4-Difluorophenyl)-7-[(4R)-4-hydroxy-2-oxopyrrolidin-1-yl]-4-oxo-N-[(2S)-1,1,1-trifluorobutan-2-yl]-1,4-dihydro-1,8-naphthyridine-3-carboxamide] | 23 | 598 nM |  | 79.9% |
| CC[C@H](NC(=O)c1cn(-c2ccc(F)cc2F)c2nc(N3CC=CC3=O)ccc2c1=O)C(F)(F)F [Example 286, 1-(2,4-Difluorophenyl)-4-oxo-7-(2-oxo-2,5-dihydro-1H-pyrrol-1-yl)-N-[(2S)-1,1,1-trifluorobutan-2-yl]-1,4-dihydro-1,8-naphthyridine-3-carboxamide] | 3 | 94 nM |  |  |
| CC[C@@H](NC(=O)c1cn(-c2c(F)cccc2Cl)c2nc(N3C[C@@H](O)CC3=O)ccc2c1=O)C(F)(F)F [Example 307, 1-(2-Chloro-6-fluorophenyl)-7-[(4S)-4-hydroxy-2-oxopyrrolidin-1-yl]-4-oxo-N-[(2R)-1,1,1-trifluorobutan-2-yl]-1,4-dihydro-1,8-naphthyridine-3-carboxamide] | 36 | 14 nM |  |  |
| CC[C@@H](NC(=O)c1cn(-c2ccc(F)cc2F)c2nc(N3CCNC3=O)ccc2c1=O)C(F)(F)F [Example 320, 1-(2,4-Difluorophenyl)-4-oxo-7-(2-oxoimidazolidin-1-yl)-N-[(2R)-1,1,1-trifluorobutan-2-yl]-1,4-dihydro-1,8-naphthyridine-3-carboxamide] | 6 | 130 nM |  |  |
| C[C@H](NC(=O)c1cn(-c2c(F)cccc2F)c2nc(N3C[C@@H](O)CC3=O)ccc2c1=O)C(F)(F)F [Example 329, 1-(2,6-Difluorophenyl)-7-[(4S)-4-hydroxy-2-oxopyrrolidin-1-yl]-4-oxo-N-[(2S)-1,1,1-trifluoropropan-2-yl]-1,4-dihydro-1,8-naphthyridine-3-carboxamide] | 16 | 76 nM |  |  |
| CC[C@H](NC(=O)c1cn(-c2c(F)cccc2F)c2nc(N3C[C@@H](O)CC3=O)ccc2c1=O)C(F)(F)F [Example 333, 1-(2,6-Difluorophenyl)-7-[(4S)-4-hydroxy-2-oxopyrrolidin-1-yl]-4-oxo-N-[(2S)-1,1,1-trifluorobutan-2-yl]-1,4-dihydro-1,8-naphthyridine-3-carboxamide] | 28 | 31 nM |  | 94.5% |
| C[C@H](NC(=O)c1cn(-c2c(F)cc(F)cc2Cl)c2nc(N3CCC(C)(C)C3=O)ccc2c1=O)C(F)(F)F [Example 335, 1-(2-Chloro-4,6-difluorophenyl)-7-(3,3-dimethyl-2-oxopyrrolidin-1-yl)-4-oxo-N-[(2S)-1,1,1-trifluoropropan-2-yl]-1,4-dihydro-1,8-naphthyridine-3-carboxamide] | 7 | 23 nM |  |  |
| O=C(N[C@@H](C1CC1)C(F)(F)F)c1cn(-c2c(F)cc(F)cc2Cl)c2nc(N3C[C@@H](O)CC3=O)ccc2c1=O [Example 338, 1-(2-Chloro-4,6-difluorophenyl)-N-[(1 S)-1-cyclopropyl-2,2,2-trifluoroethyl]-7-[(4S)-4-hydroxy-2-oxopyrrolidin-1-yl]-4-oxo-1,4-dihydro-1,8-naphthyridine-3-carboxamide] | 24 | 7 nM |  |  |
| O=C(NC1(C(F)(F)F)CCCC1)c1cn(-c2c(F)cc(F)cc2F)c2nc(N3C[C@@H](O)[C@H](O)C3)ccc2c1=O [Example 350, 7-[(3R,4R)-3,4-Dihydroxypyrrolidin-1-yl]-4-oxo-N-[1-(trifluoromethyl)cyclopentyl]-1-(2,4,6-trifluorophenyl)-1,4-dihydro-1,8-naphthyridine-3-carboxamide] | 42 | 6 nM |  |  |
